These are literature values, as cited in publication PMC4594385 (Journal of Medical Physics / Association of Medical …, 2015).

The conditions of the data set: compared with femur uptake at 4 h; ref Banerjee et al. [1].

Structures are written as SMILES.

Consider `O=P([O-])(O)CN(CCN(CP(=O)([O-])O)CP(=O)(O)O)CP(=O)([O-])O.[153Sm+3]` [^153Sm-EDTMP], for which the Bone uptake is recorded as 3.72 %ID/g.
